From publication PMC5108032, “Discovery of a Quinoline-4-carboxamide Derivative with a Novel Mechanism of Action, Multistage Antimalarial Activity, and Potent in Vivo Efficacy” (Journal of Medicinal Chemistry, 2016)
Several values for one entry are separate records, joined by “and”; a condition that tells them apart may be missing. Equal entries are not always repeated.

What was measured:
[1] = Mammalian cell growth inhibition counter-screen (resazurin); assay type: cell-based, human; details: human, MRC-5 cells (normal diploid human fibroblasts)
Procedure: Plasmodium falciparum screening
Assays against P. falciparum were conducted as previously described.1 Cultures of the widely-used malaria reference strain of chloroquine-sensitive Plasmodium falciparum strain 3D7 were maintained in a 5% suspension of human red blood cells (obtained from East of Scotland Blood Transfusion Service, Ninewells Hospital, Dundee) cultured in RPMI 1640 medium (pH 7.3) supplemented with 0.5% Albumax II (Gibco Life Technologies, San Diego, CA), 12 mM sodium bicarbonate, 0.2 mM hypoxanthine and 20 mg/L gentamicin at 37°C, in a humidified atmosphere of 1% O 2, 3% CO2 with a balance of nitrogen. Growth inhibition was quantified using a fluorescence assay utilising the binding of SYBR green to double stranded DNA, which emits a fluorescent signal at 528 nm after excitation at 485nm.2 Mefloquine (potency range 30-60 nM) was used as a drug control to monitor the quality of the assay (Z’ = 0.6 to 0.8, Signal to background >3, where Z’ is a measure of the discrimination between the positive and negative controls on a screen plate). A 96-well [3H]-Hypoxanthine incorporation assay was also developed as a secondary assay in order to validate compounds from the initial screen in an orthogonal platform.3 Compound bioactivity from both assays was expressed as […]
P. falciparum (panel of resistant strains) in vitro assay. (Swiss TPH)
All Plasmodium strains were cultured according to Trager and Jensen and are described at www.beiresources.org (resistant strains: K1, W2, 7G8, TM90C2A, D6 and V1/S, sensitive strain:
NF54). EC50 values were determined in vitro by measuring incorporation of the nucleic acid precursor […]
Mammalian Cell Growth Inhibition assay
A counter-screen against normal diploid human fibroblasts (MRC-5 cell line) was carried out to exclude non-selective, and toxic compounds. The assay was essentially carried out as described previously.4 Cells were plated and incubated overnight to allow them to adhere as monolayers. A working stock of each test compound was transferred to an intermediate 384-well plate and pre-diluted with minimum essential media (MEM). The pre-diluted stocks were then transferred onto the cell monolayers, and the plates were incubated for 68 h. Resazurin, to a final concentration of 50 μM, was added to each well, after which plates were incubated for a further 3 h and measured for fluorescence (λex=528 nm, λem=590 nm)
In vitro Cell Assay Data Analysis.
All data was processed using IDBS ActivityBase® raw data was converted into per cent inhibition through linear regression by setting the high inhibition control as 100% and the no inhibition control as 0%. Quality control criteria for passing plates were as follows: Z’> 0.5, S:B> 3, %CV(no inhibition < 15 . The formula used to calculate Z’ is 1 3× (St D e v _ hi gh + St D e v _ low) . […]
All EC50 Curve fitting was undertaken using XLFit version 4.2 using Model 205 with the following 4 parametric equation: y = A + B A A + ($-&) ,where A=% inhibition at bottom, B=% […]
inhibition at top, C= EC50, D= slope, x= inhibitor concentration and y= % inhibition. […]
reach 100% of inhibition, B was fixed to 100 only when at least 50% of inhibition was reached.
Plasmodium falciparum late stage (IV-V) gametocyte high content imaging assay Plasmodium falciparum NF54-pfs16-LUC-GFP stage IV-V Gametocytes were produced as described previously.5 Compounds were solubilized in DMSO and serially diluted in three concentrations per log standard curves in DM SO. One µl of compound was subsequently diluted in 25µl of water (4% DMSO) and 5µl transferred into the base of 384 well PerkinElmer CellCarrier plates. Forty-five µl of stage IV-V gametocytes (10%P in 0.1%H) were added to the imaging plates which were in turn sealed with a gas permeable membrane and incubated at 37°C, 5% CO 2, 5% O2, 90% N2 and 60% humidity […]
Post incubation, 5µl of MitoTracker® Red CM -H2Xros (MTR) solution (0.66ug/ml) was added to all wells and the plates incubated for a further 16hours. […]

[2] = tested on: P. berghei ANKA strain; test: In vivo antimalarial efficacy in the P. berghei mouse model (Peter's test); set-up: species or system Plasmodium berghei in female NMRI mice; details: 4 × 30 mg/kg oral, once daily; mice cured / mice in group; 30 mg/kg
Procedure: Compound 41 was dosed as a bolus solution intravenously at 1 mg free base/kg (dose volume: 5 mL/kg; dose vehicle: 5% DMSO;saline) or by gavage orally as solution at 3 mg free base/kg (dose volume: 10 mL/kg; Dose vehicle: 0.5% w/v hydroxypropylmethylcellulose with 0.4% v/v Tween 80 and 0.5% v/v benzyl alcohol) to male Sprague Dawley rats (n=3/dose route). Blood samples were taken from each rat at 5, 15, 30 min, 1, 2, 4, 6, 8, 24 and 30 h post-dose, mixed with two volumes of distilled water and stored frozen until UPLC/MS/MS analysis.
Pharmacokinetic parameters were derived from the blood concentration time curve for each compound using PKsolutions software v 2.0 (Summit Research Services, USA).
In vivo antimalarial efficacy studies in P. berghei. (Swiss TPH)
In vivo efficacy was conducted as previously described10 with the modification that female NMRI mice (n = 3) were infected with a GFP-transfected P. berghei ANKA strain (donated by A. P. Waters and C. J. Janse, Leiden University, The Netherlands), and parasitaemia determined (96 h after infection) using standard flow cytometry techniques. Compounds 1, 25, 27, 30 and 49 were prepared in 10% DM SO, 40% PEG 400 and 50% water prior to administration orally, once daily for 4 days.
Compounds 40, 41, 43 and 44 were prepared in a non-solubilizing, standard suspension vehicle called HPMC (0.5% [wt/vol] hydroxypropylmethylcellulose, 0.5% [vol/vol] benzyl alcohol, 0.4% [vol/vol] Tween 80, and 0.9% [wt/vol] sodium chloride in water) prior to administration orally, once daily for 4 days. Blood samples were collected on day 4 (96 h after infection) in two volumes water. Animals […]
and then hourly up to 4 h after dosing each day. The animals were selected randomly for each group

| SMILES | EC50 at 68 h [1] [µM] | cure [2] |
| --- | --- | --- |
| O=C(NCCN1CCCC1)c1cc(-c2ccc(CN3CCOCC3)cc2Cl)nc2ccc(F)cc12 [Compound 42, 2-(2-Chloro-4-(morpholinomethyl)phenyl)-6-fluoro-N-(2-(pyrrolidin-1-yl)ethyl)quinoline-4-carboxamide] | > 50 | – |
| O=C(NCCN1CCCC1)c1cc(NCCCCN2CCOCC2)nc2ccc(Cl)cc12 [Compound 27, 6-Chloro-2-((4-morpholinobutyl)amino)-N-(2-(pyrrolidin-1-yl)ethyl)quinoline-4-carboxamide] | – | one out of three and 1/3 |
